Test results reported in patent US20240376126A1, “PRMT5 INHIBITOR AND THE USE THEREOF” (CYTOSINLAB THERAPEUTICS CO., LTD., priority 2022, published 2024).

What was measured:
[1] = test system: HCT116-MTAP-KO (MTAP null) cells; test: Proliferation inhibition of HCT116 MTAP-KO cells in vitro (CellTiter Glo, 6 days); assay type: cell-based; conditions: HCT116-MTAP null, 144 h, read-out: Cell proliferation inhibition rate HCT116-MTAP null IC50 (nm)
From the text: (§1) Biological Test Example 2 Proliferation Inhibition of HCT116 and HCT116 MTAP-KO Cells In Vitro
(§2) HCT116 cell line was purchased from the Chinese Academy of Sciences Cell Bank, and the MTAP gene was knocked out by CRISPR/Cas9 technology to obtain HCT116-MTAP-KO cell line.
(§3) McCoy's 5A medium (Gibco, catalog No. 16600082), fetal bovine serum (Gibco, catalog No. 10099141C), penicillin-streptomycin double antibody (Gibco, catalog No. 15140122), pancreatic enzyme (Gibco, catalog No. 25200056), CellTiter Glo assay kit (Promega, catalog No. G7572), 384-well transparent flat-bottomed black walled cell culture plate (Corning, catalog No. 3764), ultra micro sampler (Tecan, catalog No. D300e), Multimode reader (Biotek, catalog No. SynergyHTX)
(§4) • 1. Cell culture: HCT116 and HCT116-MTAP-KO cells were cultured in McCoy'5A medium+10% fetal bovine serum+1% penicillin-streptomycin double antibody; to ensure that they were always in the logarithmic growth phase and the cell viability greater than 95%. • 2. Compound concentration gradient preparation: The compound to be tested was added to a 384-well plate using an ultra micro sampler, starting from 30 μM (HCT116 cells) or 3 μM (HCT116-MTAP-KO cells), and diluted with DMSO at 3 times for a total of 9 concentrations and set up three duplicate wells. • 3. Treatment of cells with compounds: Trypsin-digested HCT116 or HCT116-MTAP-KO cell suspension was added to the 384-well plates spotted with the compounds to be tested at 40 μL per well, i.e., 100 cells per well, and the final concentration of DMSO was 0.4%. The cell culture plate was incubated at 37° C. in a 5% CO2 incubator for 6 days. • 4. Detection: 20 μL of CellTiter Glo reagent was added to each well of the cell culture plate and incubated at room temperature for 30 minutes. A multimode reader was used to detect the luminescence signal at […]. • 5. Data analysis:
(§5) The data was fitted with GraphPad Prism 8.0 software using a four parameter inhibitor-reaction model to obtain the […] (half inhibitory concentration) of the test compounds.
(§6) The first column represents cell proliferation inhibition rate HCT116 MTAP WT IC50 (nm), and the second column represents cell proliferation inhibition rate HCT116-MTAP null IC50 (nm): […]

HCT116 MTAP WT cells = test: Proliferation inhibition of HCT116 cells in vitro (CellTiter Glo, 6 days); assay type: cell-based; conditions: Homo sapiens, HCT-116, 144 h, read-out: Cell proliferation inhibition rate HCT116 MTAP WT IC50 (nm)
From the text: as §1, §2, §3, §4, §5, §6

Compound | IC50 [1] [nM] | IC50 (HCT116 MTAP WT cells) [nM]
CC(c1ncccn1)N(Cc1nc2cc(C(F)(F)F)ccc2s1)C(=O)c1ccc2nc(N)c3c(c2c1)CCC3 (centres unmarked) [Example 153] | 100 to 1000 | 1000 to 10000
COCC(C1CC1)N(Cc1nc2cc(C(F)(F)F)ccc2s1)C(=O)c1ccc2nc(N)c3c(c2c1)CCC3 (centres unmarked) [Example 154] | 100 to 1000 | 1000 to 10000
CC(c1ncccn1)N(Cc1nc2ccccn2n1)C(=O)c1ccc2nc(N)c3c(c2c1)CCC3 (centres unmarked) [Example 155] | 100 to 1000 | 1000 to 10000
CC(c1ncccn1)N(Cc1cc2n(n1)CCOC2)C(=O)c1ccc2nc(N)c3c(c2c1)CCC3 (centres unmarked) [Example 156] | 100 to 1000 | 1000 to 10000
CC(c1ncccn1)N(Cc1cn2c(n1)COCC2)C(=O)c1ccc2nc(N)c3c(c2c1)CCC3 (centres unmarked) [Example 157] | 100 to 1000 | 1000 to 10000
Cc1cn2c(n1)c(N)nc1cc(F)c(C(=O)N(Cc3cn4ccccc4n3)CC(C)C)cc12 [Example 158] | 100 to 1000 | 1000 to 10000
CCN(Cc1cc2ccccn2n1)C(=O)c1ccc2nc(N)c3cnc(C)n3c2c1 [Example 159] | 100 to 1000 | 1000 to 10000
Cc1ncc2c(N)nc3ccc(C(=O)N(Cc4nc5cnccc5s4)CC(C)C)cc3n12 [Example 160] | 100 to 1000 | 1000 to 10000
Cc1nc(C)n2c1c(N)nc1cc(F)c(C(=O)N(Cc3cn4ccccc4n3)CC(C)C)cc12 [Example 162] | 100 to 1000 | 1000 to 10000
CCN(C(=O)c1cc2c(cc1F)nc(N)c1cnc(C)n12)C(C)c1cn2ccccc2n1 (centres unmarked) [Example 163] | 100 to 1000 | 1000 to 10000

Results, then the compound that gave them:

IC50 [1] [nM] | IC50 (HCT116 MTAP WT cells) [nM] | Compound
< 100 | 100 to 1000 | COCCN(Cc1cn2ccccc2n1)C(=O)c1cc2c(cc1C)nc(N)c1cnc(C)n12 [Example 166]
100 to 1000 | 1000 to 10000 | Cc1nc(C)n2c1c(N)nc1ccc(C(=O)N(C)C3COc4cc(-c5cnn(C(F)(F)F)c5)ccc43)cc12 (centres unmarked) [Example 167]
100 to 1000 | 1000 to 10000 | Cc1cn2c(n1)c(N)nc1ccc(C(=O)N3C(C)COC[C@@H]3c3cn4ccccc4n3)cc12 (some centres unmarked) [Example 168]
< 100 | 100 to 1000 | Cc1ncc2c(N)nc3cc(F)c(C(=O)N(Cc4cn5ccccc5n4)C45CC(C4)C5)cc3n12 [Example 169]
< 100 | 100 to 1000 | Cc1cn2c(n1)c(N)nc1cc(F)c(C(=O)N3C(C)COC[C@@H]3c3cn4cc(C(F)(F)F)ccc4n3)cc12 (some centres unmarked) [Example 170]
100 to 1000 | 1000 to 10000 | COCCN(C(=O)c1cc2c(cc1F)nc(N)c1cnc(C)n12)C(C)c1cn2ccccc2n1 (centres unmarked) [Example 171]
< 100 | 100 to 1000 | Cc1ncc2c(N)nc3cc(F)c(C(=O)N4C(C)COC[C@@H]4c4cn5cc(C(F)(F)F)ccc5n4)cc3n12 (some centres unmarked) [Example 172]
100 to 1000 | 1000 to 10000 | [2H]C([2H])([2H])N(Cc1cn2cc(C(F)(F)F)ccc2n1)C(=O)c1cc2c(cc1F)nc(N)c1cnc(C)n12 [Example 173]
100 to 1000 | < 100 | Cc1cn2c(n1)c(N)nc1cc(F)c(C(=O)N3C(C)COC[C@@H]3c3cn4ccccc4n3)cc12 (some centres unmarked) [Example 174]
100 to 1000 | 1000 to 10000 | Cc1ncc2c(N)nc3cc(F)c(C(=O)N4C(C)COC[C@@H]4c4cn5ccccc5n4)cc3n12 (some centres unmarked) [Example 176]
100 to 1000 | 1000 to 10000 | COC1CC(N(Cc2cn3ccccc3n2)C(=O)c2cc3c(cc2F)nc(N)c2cnc(C)n23)C1 (centres unmarked) [Example 177]
100 to 1000 | 1000 to 10000 | CCN(Cc1cn2cc(C(F)(F)F)ccc2n1)C(=O)c1cc2c(cc1F)nc(N)c1cnc(C)n12 [Example 178]
< 100 | 1000 to 10000 | Cc1ncc2c(N)nc3cc(F)c(C(=O)N(Cc4cn5ccccc5n4)C4CCC4)cc3n12 [Example 179]
100 to 1000 | 1000 to 10000 | Cc1ncc2c(N)nc3cc(F)c(C(=O)N(Cc4cn5ccccc5n4)CC(F)(F)F)cc3n12 [Example 180]
100 to 1000 | 1000 to 10000 | Cc1ncc2c(N)nc3cc(F)c(C(=O)N(Cc4cn5ccccc5n4)c4cnn(C)c4)cc3n12 [Example 181]
